Experimental data taken from patent US6054460A, “Anticonvulsive and antiallergic/antiasthmatic pyrazolo-[3,4-d]pyrimidines, and process for preparing” (Arzneimittelwerk Dresden GmbH, priority 1998, dated 2000).
Read-outs that look alike come from different tables or passages of the source.

Legend:
maximal electroshock [1] = assay: Maximal electroshock (MES), anticonvulsive action, mouse i.p.; format: in vivo
Excerpt: (§1) ^3) Mouse i.p.: MES = maximal electroshock, PTZ = s.c. pentetrazole
(§2) ^5) In % of the protected animals; n.t. = not tested

s.c. pentetrazole = s.c. pentetrazole (PTZ), anticonvulsive action, mouse i.p.; format: in vivo; conditions: ip, read-out: Action, PTZ (protected animals)
Excerpt: as §1, §2

adenosine receptor (A3) = biological target: T1, adenosine receptor (A3) (Homo sapiens, UniProt P0DMS8); assay: Binding at the adenosine receptor (A3) and selectivities; conditions: for Ki: adenosine A3 receptor; for selectivity A3/A1: ratio A3/A1; for selectivity A3/A2: ratio A3/A2
T1 sequence (P0DMS8 1-318): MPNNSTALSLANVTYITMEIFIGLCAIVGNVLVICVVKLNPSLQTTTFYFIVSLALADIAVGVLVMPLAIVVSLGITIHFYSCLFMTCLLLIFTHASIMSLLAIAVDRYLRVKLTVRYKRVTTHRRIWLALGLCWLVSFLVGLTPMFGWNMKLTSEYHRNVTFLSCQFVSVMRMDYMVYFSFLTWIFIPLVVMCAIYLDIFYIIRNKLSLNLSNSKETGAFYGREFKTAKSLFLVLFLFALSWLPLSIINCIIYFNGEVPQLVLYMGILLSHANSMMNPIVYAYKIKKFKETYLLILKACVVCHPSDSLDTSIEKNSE

[2] = Octanol/water partition coefficient
maximal electroshock [3] = assay: Maximal electroshock, anticonvulsive action, rat p.o.; format: in vivo; conditions: for ED50: po, maximal electroshock
Excerpt: Week-blad, Sc. Ed. 14, 132 (1992) and Antiepileptic Drugs, Third Ed., Raven Press, New York 1989.
(§3) Analogous results were obtained for the orally administered tests.

in vivo = conditions: rat, po
Excerpt: as §3

[4] = tested on: eosinophilic granulocytes; assay: Inhibition of infiltration of eosinophilic granulocytes into the lungs (BAL, ovalbumin-challenged guinea-pigs, oral); format: in vivo, guinea-pig (Dunkin Hartley Shoe); conditions: guinea-pig, 100 mg/kg, 2 hours before allergen challenge
Procedure: The compounds of the present invention were tested in vivo for antiasthmatic action after oral administration to male guinea-pigs, and the inhibition of the infiltration of the eosinophilic granulocytes into the lungs was determined. Male guinea-pigs (Dunkin Hartley Shoe) weighing 200-250 g were actively sensitized by an s.c. injection of ovalbumin (10 μg+1 mg of aluminum hydroxide) and boosted 2 weeks later. One week after boosting with ovalbumin, the animals were challenged with an aerosol of 0.5% strength ovalbumin solution for 20-30 sec. 24 hours later, a bronchoalveolar lavage (BAL) was carried out in the animals under urethane anaesthesia using 2×5 ml of saline solution. The lavage fluid was collected and centrifuged at 400×g for 10 min and the cell pellets were suspended in 1 ml of saline solution. The eosinophilic granulocytes were counted microscopically in a Neubauer chamber. A Becton Dickinson test kit (No. 5877) for eosinophils was used for staining. The test kit used phloxine B as a selective stain for eosinophils. The eosinophils in the BAL were counted for each animal and the eosinophils were calculated in millions/animal. The test substances were administered orally 2 hours before allergen challenge.
The percentage inhibition of eosinophilia of the group treated with substance is calculated according to the following formula:
(A-C)-(B-C)/(A-C)×100=% inhibition […]

[5] = ip, mouse i.p., 100 mg/kg, read-out: Action, MES (protected animals)
[6] = ip, mouse i.p., read-out: Action, MES (protected animals)

Row | Molecule | responders at 100 mg/kg (maximal electroshock [1]; [5]) [%] | responders at 100 mg/kg (s.c. pentetrazole; mouse i.p., 100 mg/kg) [%] | responders at 30 mg/kg (maximal electroshock [1]; [6]) [%] | Ki (adenosine receptor (A3)) [nM] | selectivity A3/A1 (adenosine receptor (A3)) | selectivity A3/A2 (adenosine receptor (A3)) | logP [2] | further results
1 | 2-benzyl-pyrazolo-[3,4-d]-pyrimidine [reference compound] |  |  |  |  |  |  |  | Action, MES (protected animals) (maximal electroshock [1]; mouse i.p., 100 mg/kg): 100%; Log P (octanol/water partition coefficient): 0.40
2 | NC(=O)N1c2ccccc2C=Cc2ccccc21 [Carbamazepine, reference compound] | 100 | 0 |  |  |  |  |  | 
3 | O=c1[nH]cnc2nn(Cc3ccccc3F)cc12 [Example 1, 2-(2-fluorobenzyl)pyrazolo[3,4-d]pyrimidin-4(5H)-one] |  | 100 | 100 | 3200 | 0.7 | 0.01 | 0.2 | 
4 | O=c1[nH]cnc2nn(Cc3ccccc3Cl)cc12 [Example 2, 2-(2-chlorobenzyl)pyrazolo[3,4-d]pyrimidin-4(5H)-one] | 100 | 60 |  | 2000 | 0.02 | 0.06 | 1.01 | ED50 (maximal electroshock [3]): 32 mg/kg; TD50 (in vivo): > 250 mg/kg
5 | O=c1[nH]cnc2nn(Cc3ccccc3Br)cc12 [Example 3, 2-(2-bromobenzyl)pyrazolo[3,4-d]pyrimidin-4(5H)-one] | 100 |  |  | 430 | 0.008 | 0.005 | 0.56 | responders at 300 mg/kg (s.c. pentetrazole; mouse i.p.): 80%; % inhibition of infiltration of eosinophilic granulocytes into the lung [4]: 74%
6 | O=c1[nH]cnc2nn(Cc3ccccc3I)cc12 [Example 4, 2-(2-iodobenzyl)pyrazolo[3,4-d]pyrimidin-4(5H)-one] |  |  |  | 490 | 0.008 | < 0.0005 | 0.74 | responders at 300 mg/kg (maximal electroshock [1]; ip, mouse i.p., 300 mg/kg, read-out: Action, MES (protected animals)): 100%
7 | O=c1[nH]cnc2nn(Cc3ccccc3C(F)(F)F)cc12 [Example 5, 2-(2-trifluoromethylbenzyl)pyrazolo[3,4-d]pyrimidin-4(5H)-one] |  |  | 100 | 790 | 0.002 | 0.007 | 1.08 | responders at 30 mg/kg (s.c. pentetrazole; mouse i.p.): 20%
8 | Cc1ccccc1Cn1cc2c(=O)[nH]cnc2n1 [Example 6, 2-(2-methylbenzyl)pyrazolo[3,4-d]pyrimidin-4(5H)-one] |  | 20 | 100 | 4000 | 0.01 | 0.08 | 0.75 | 
9 | O=c1[nH]cnc2nn(Cc3cccc(C(F)(F)F)c3)cc12 [Example 7, 2-(3-trifluoromethylbenzyl)pyrazolo[3,4-d]pyrimidin-4(5H)-one] |  | 60 | 100 |  |  |  | 1 | 
10 | O=c1[nH]cnc2nn(Cc3c(F)cccc3F)cc12 [Example 8, 2-(2,6-difluorobenzyl)pyrazolo[3,4-d]pyrimidin-4(5H)-one] |  |  | 100 |  |  |  | 0.18 | responders at 30 mg/kg (s.c. pentetrazole; mouse i.p.): 40%
11 | O=c1[nH]cnc2nn(Cc3c(F)cccc3Cl)cc12 [Example 9, 2-(2-chloro-6-fluorobenzyl)pyrazolo[3,4-d]pyrimidin-4(5H)-one] |  |  | 100 | 1000 | 0.002 | 0.004 | 0.93 | 
12 | O=c1[nH]cnc2nn(Cc3c(Cl)cccc3Cl)cc12 [Example 10, 2-(2,6-dichlorobenzyl)pyrazolo[3,4-d]pyrimidin-4(5H)-one] | 60 |  |  | 1600 | 0.02 | 0.02 | 1.16 | 
13 | O=c1[nH]cnc2nn(Cc3ccc(Cl)cc3Cl)cc12 [Example 11, 2-(2,4-dichlorobenzyl)pyrazolo[3,4-d]pyrimidin-4(5H)-one] | 100 | 20 |  | 710 | 0.04 | 0.01 | 1.68 | 
14 | COc1ccc(Cn2cc3c(=O)[nH]cnc3n2)cc1 [Example 12, 2-(4-methoxybenzyl)pyrazolo[3,4-d]pyrimidin-4(5H)-one] | 15 |  |  | 9800 | 0.5 | 0.01 | 0.62 | responders at 300 mg/kg (s.c. pentetrazole; mouse i.p.): 40%
15 | O=c1[nH]cnc2nn(Cc3cc4c(cc3Cl)OCO4)cc12 [Example 13, 2-(2-chloro-4,5-methylenedioxybenzyl)pyrazolo[3,4-d]pyrimidin-4(5H)-one] | 30 |  |  | 8300 | 0.4 | 0.02 | 1.21 | 
16 | S=c1[nH]cnc2nn(Cc3ccccc3Cl)cc12 [Example 15, 2-(2-chlorobenzyl)pyrazolo[3,4-d]pyrimidine-4(5H)-thione] | 100 | 60 |  | 500 | 0.007 | < 0.001 | 1.54 | ED50 (maximal electroshock [3]): 12 mg/kg; anticonvulsive action, in words (maximal electroshock [3]; qualitative): strongly anticonvulsive; TD50 (in vivo): > 460 mg/kg; therapeutic breadth, in words (in vivo): great therapeutic breadth
17 | S=c1[nH]cnc2nn(Cc3ccccc3Br)cc12 [Example 16, 2-(2-bromobenzyl)pyrazolo[3,4-d]pyrimidine-4(5H)-thione] | 30 |  |  | 340 | 0.005 | < 0.001 | 1.2 | 
18 | S=c1[nH]cnc2nn(Cc3ccccc3I)cc12 [Example 17, 2-(2-iodobenzyl)pyrazolo[3,4-d]pyrimidine-4(5H)-thione] | 30 |  |  | 500 | 0.008 | < 0.001 | 1.4 | 
19 | FC(F)(F)c1ccccc1Cn1cc2c(=S)[nH]cnc2n1 [Example 18, 2-(2-trifluoromethylbenzyl)pyrazolo[3,4-d]pyrimidine-4(5H)-thione] | 100 | 80 |  |  |  |  | 1.6 | 
20 | Fc1cccc(F)c1Cn1cc2c(=S)[nH]cnc2n1 [Example 19, 2-(2,6-difluorobenzyl)pyrazolo[3,4-d]pyrimidine-4(5H)-thione] |  | 60 | 100 |  |  |  | 1.57 | 
21 | CCCC(CCC)C(=O)O [Valproate, reference compound] |  |  |  |  |  |  |  | responders at 100 mg/kg (maximal electroshock [1]; Mus musculus, ip, read-out: Action, MES (protected animals)): 0%; responders at 100 mg/kg (s.c. pentetrazole; Mus musculus): 30%
